Read-outs that look alike come from different tables or passages of the source.
How the values were obtained:
[1] = target: KRas G12C (Homo sapiens, UniProt P01116, C118S/C51S/C80L/G12C); experiment: KRas G12C Modification Assay (LCMS detection of covalent adduct); format: binding
Outline: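 Cys-light KRas G12C mutant protein incubated with compound in K-Ras assay buffer, reactions quenched at set time points with 25 mM acetic acid and analysed by intact-protein LC/MS on a C-3 column. Deconvoluted mass heights expressed as percent of control (POC) relative to compound-free protein.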

[2] = tested on: NCI-H358 cells (express KRas G12C), Phospho-ERK; experiment: Cellular inhibition of KRas G12C: Phospho-ERK in NCI-H358 cells; format: cell-based; conditions: Homo sapiens
Outline: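 IC50 derived by 4-parameter fit of GAPDH-normalized pERK(Thr202/Tyr204) signal, as percent of DMSO control. Signal came from in-cell immunodetection with infrared secondaries after 3 h compound exposure of KRas G12C NCI-H358 cells at 0.5% DMSO.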

[3] = normalized percent of control, tested at 5 μM concentration for 3 hours
[4] = pERK(Thr202/Tyr204) normalized with GAPDH, NCI-H358 cells, 3 hours, read-out: IC50
[5] = NCI-H358, 3 h, pERK(Thr202/Tyr204) normalized with GAPDH, NCI-H358 cells, 3 hours, read-out: IC50

POC [1, 3] | SMILES | IC50 [2, 4] [nM] | IC50 [2, 5] [nM] | POC ([1]; 5 µM) | IC50 ([2]; NCI-H358, 3 h) [nM]
A (“A”≤25% POC) | C=CC(=O)N1CCN(c2nc(OCCCN3CCOCC3)nc3c2CCN(c2cc(O)ccc2OC(C)C)C3)CC1 [Example 96, 1-(4-(7-(5-hydroxy-2-isopropoxyphenyl)-2-(3-morpholinopropoxy)-5,6,7,8-tetrahydropyrido[3,4-d]pyrimidin-4-yl)piperazin-1-yl)prop-2-en-1-one] | > 1000 |  |  | 
C (“C”>50% POC) | C=CC(=O)N1CCN(c2nc(O[C@@H]3CCCN(C)C3)nc3c2CCN(c2cc(O)cc4ccccc24)C3)CC1 [Example 67, (R)-1-(4-(7-(3-hydroxynaphthalen-1-yl)-2-((1-methylpiperidin-3-yl)oxy)-5,6,7,8-tetrahydropyrido[3,4-d]pyrimidin-4-yl)piperazin-1-yl)prop-2-en-1-one] |  | 0.1 to 1000 |  | 
 | C=CC(=O)N1CCN(c2nc(OCCCN3CCOCC3)nc3c2CCN(c2c(F)c(O)cc4ccccc24)C3)CC1 [Example 165, 1-[4-[7-(2-fluoro-3-hydroxy-1-naphthyl)-2-(3-morpholinopropoxy)-6,8-dihydro-5H-pyrido[3,4-d]pyrimidin-4-yl]piperazin-1-yl]prop-2-en-1-one] |  |  | C (key: “A”≤25% POC; “B”>25% POC−≤50% POC; “C”>50% POC) | > 1000
C (“C”>50% POC) | C=CC(=O)N1C[C@H](C)N(c2nc(OC[C@@H]3CCCN3C)nc3c2CCN(c2cccc4ccccc24)C3)C[C@@H]1CC#N [Example 368, 2-((2S,5S)-1-acryloyl-5-methyl-4-(2-(((S)-1-methylpyrrolidin-2-yl)methoxy)-7-(naphthalen-1-yl)-5,6,7,8-tetrahydropyrido[3,4-d]pyrimidin-4-yl)piperazin-2-yl)acetonitrile] |  | > 1000 |  | 
C (“C”>50% POC) | C=CC(=O)N1CCN(c2nc(OC[C@@H]3CCCN3CC(=O)N(C)C)nc3c2CCN(c2cccc4ccccc24)C3)CC1CC#N (stereo partly drawn) [Example 397, 2-((2S)-2-(((4-(4-acryloyl-3-(cyanomethyl)piperazin-1-yl)-7-(naphthalen-1-yl)-5,6,7,8-tetrahydropyrido[3,4-d]pyrimidin-2-yl)oxy)methyl)pyrrolidin-1-yl)-N,N-dimethylacetamide] |  | 0.1 to 1000 |  | 
C (“C”>50% POC) | C=CC(=O)N1CCN(c2nc(O[C@H](C)CN(C)C)nc3c2CCN(c2cc(O)cc4ccccc24)C3)CC1CC#N (stereo partly drawn) [Example 150, 2-(1-acryloyl-4-(2-(((R)-1-(dimethylamino)propan-2-yl)oxy)-7-(3-hydroxynaphthalen-1-yl)-5,6,7,8-tetrahydropyrido[3,4-d]pyrimidin-4-yl)piperazin-2-yl)acetonitrile] |  | 0.1 to 1000 |  | 
C (“C”>50% POC) | C=CC(=O)N1CCN(c2nc(OC[C@@H]3CCCN3C)nc3c2CCN(c2cc(OC)cc4ccccc24)C3)C[C@@H]1CC#N [Example 314, 2-[(2S)-4-[7-(3-methoxy-1-naphthyl)-2-[[(2S)-1-methylpyrrolidin-2-yl]methoxy]-6,8-dihydro-5H-pyrido[3,4-d]pyrimidin-4-yl]-1-prop-2-enoyl-piperazin-2-yl]acetonitrile] |  | 0.1 to 1000 |  | 
C (“C”>50% POC) | CC#CC(=O)N1CCN(c2nc(OC[C@@H]3CCCN3C)nc3c2CCN(c2cccc(C)c2C)C3)C[C@@H]1CC#N [Example 389, 2-((S)-1-(but-2-ynoyl)-4-(7-(2,3-dimethylphenyl)-2-(((S)-1-methylpyrrolidin-2-yl)methoxy)-5,6,7,8-tetrahydropyrido[3,4-d]pyrimidin-4-yl)piperazin-2-yl)acetonitrile] |  | > 1000 |  | 

SMILES | POC [1, 3] | IC50 [2, 4] [nM] | IC50 [2, 5] [nM] | POC ([1]; 5 µM) | IC50 ([2]; NCI-H358, 3 h) [nM]
C=CC(=O)N1CCN(c2nc(OC[C@H]3CCCN3C)nc3c2CCN(c2cccc4ccccc24)C3)C[C@@H]1CC#N [Example 267, 2-((S)-1-acryloyl-4-(2-(((R)-1-methylpyrrolidin-2-yl)methoxy)-7-(naphthalen-1-yl)-5,6,7,8-tetrahydropyrido[3,4-d]pyrimidin-4-yl)piperazin-2-yl)acetonitrile] | C (“C”>50% POC) | 0.1 to 1000 |  |  | 

Source: patent publication US10125134B2 (Mirati Therapeutics, Inc., priority 2016, dated 2018)
